# Measured values published in US10828315B2 (Madrigal Pharmaceuticals, Inc., priority 2013, dated 2020).
# pIC50: −log10 of the molar value. Where “and” joins values, the source holds several entries; their conditions need not be identical. Equal entries are not always repeated. Where two headings read alike, the source gives them in different places.
# Columns and labels:
# HER2 = HER2 degradation assay with BT-474 cell line (Example 12, FACS); type: cell-based, human
# [1] = Mouse plasma stability protocol, up to 1 h (Examples 16-18)
# [2] = Tissue Distribution Data for SDC-TRAP-0056
# [3] = % Remaining of parent after 1 h incubation in mouse plasma at 37° C. (10 μM)
SMILES,pIC50 (HER2),"% Remaining (1 h) [1, 3]","% Remaining (1 h, 37° C.) ([1]; mouse plasma, 37° C.)",also measured
"CCNC(=O)c1nnc(-c2cc(C(C)C)c(O)cc2O)n1-c1ccc(CN2CCC(C(=O)N3CCN(C(=O)Oc4ccc5nc6c(c(CC)c5c4)Cn4c-6cc5c(c4=O)COC(=O)C5(O)CC)C(C)C3)CC2)cc1 (stereo not shown) [SDC-TRAP-0185, 4,11-diethyl-4-hydroxy-3,14-dioxo-3,4,12,14-tetrahydro-1H-pyrano[3′,4′:6,7]indolizino[1,2-b]quinolin-9-yl 4-(1-(4-(3-(2,4-dihydroxy-5-isopropylphenyl)-5-(ethylcarbamoyl)-4H-1,2,4-triazol-4-yl)benzyl)piperidine-4-carbonyl)-2-methylpiperazine-1-carboxylate]",7.42,68.1%,68.1%,"% Remaining (1 h) ([1]; mouse plasma, 37° C., 10 μM): 68.1%"
"CCc1c2c(nc3ccc(OC(=O)N4CCC(Cn5ccc6cc(-n7c(O)nnc7-c7cc(C(C)C)c(O)cc7O)ccc65)CC4)cc13)-c1cc3c(c(=O)n1C2)COC(=O)C3(O)CC (stereo not shown) [SDC-TRAP-0186, 4,11-diethyl-4-hydroxy-3,14-dioxo-3,4,12,14-tetrahydro-1H-pyrano[3′,4′:6,7]indolizino[1,2-b]quinolin-9-yl 4-((5-(3-(2,4-dihydroxy-5-isopropylphenyl)-5-hydroxy-4H-1,2,4-triazol-4-yl)-1H-indol-1-yl)methyl)piperidine-1-carboxylate]",5.79,57.9%,57.9%,"% Remaining (1 h) ([1]; mouse plasma, 37° C., 10 μM): 57.9%"
CCNC(=O)c1nnc(-c2cc(C(C)C)c(O)cc2O)n1-c1ccc(OC2CCN(C(=O)[C@@H]3CCCN3C(=O)Oc3ccc4nc5c(c(CC)c4c3)Cn3c-5cc4c(c3=O)COC(=O)[C@]4(O)CC)CC2)cc1 [SDC-TRAP-0209],5.95,67.1%,67.1%,
"CCc1c2c(nc3ccc(OC(=O)N4CCN(Cc5ccc(-n6c(O)nnc6-c6cc(C(C)C)c(O)cc6O)cc5)CC4C)cc13)-c1cc3c(c(=O)n1C2)COC(=O)C3(O)CC (stereo not shown) [SDC-TRAP-0220, 4,11-diethyl-4-hydroxy-3,14-dioxo-3,4,12,14-tetrahydro-1H-pyrano[3′,4′:6,7]indolizino[1,2-b]quinolin-9-yl 4-(4-(3-(2,4-dihydroxy-5-isopropylphenyl)-5-hydroxy-4H-1,2,4-triazol-4-yl)benzyl)-2-methylpiperazine-1-carboxylate]",6.32 and 6.35,,78.3%,
"CCNC(=O)c1nnc(-c2cc(C(C)C)c(O)cc2O)n1-c1ccc(CN2CCC(C(=O)N3CCC(N(C)C(=O)Oc4ccc5nc6c(c(CC)c5c4)Cn4c-6cc5c(c4=O)COC(=O)C5(O)CC)CC3)CC2)cc1 (stereo not shown) [SDC-TRAP-0172, 4,11-diethyl-4-hydroxy-3,14-dioxo-3,4,12,14-tetrahydro-1H-pyrano[3′,4′:6,7]indolizino[1,2-b]quinolin-9-yl (1-(1-(4-(3-(2,4-dihydroxy-5-isopropylphenyl)-5-(ethylcarbamoyl)-4H-1,2,4-triazol-4-yl)benzyl)piperidine-4-carbonyl)piperidin-4-yl)(methyl) carbamate]",> 7.11 and 7.25,74.7%,74.7%,"% Remaining (1 h) ([1]; mouse plasma, 37° C., 10 μM): 74.7%"
"CCNC(=O)c1nnc(-c2cc(C(C)C)c(O)cc2O)n1-c1ccc(OC2CCN(C(=O)Oc3c(C)cc(COC(=O)Nc4cccc5c4CN(C4CCC(=O)NC4=O)C5=O)cc3C)CC2)cc1 (stereo not shown) [SDC-TRAP-0187, 4-((((2-(2,6-dioxopiperidin-3-yl)-1-oxoisoindolin-4-yl)carbamoyl)oxy)methyl)-2,6-dimethylphenyl 4-(4-(3-(2,4-dihydroxy-5-isopropylphenyl)-5-(ethylcarbamoyl)-4H-1,2,4-triazol-4-yl)phenoxy)piperidine-1-carboxylate]",7.14,102%,,
"CCc1c2c(nc3ccc(OC(=O)N(C)C4CCN(C(=O)CCn5ccc6cc(-n7c(O)nnc7-c7cc(C(C)C)c(O)cc7O)ccc65)CC4)cc13)-c1cc3c(c(=O)n1C2)COC(=O)C3(O)CC (stereo not shown) [SDC-TRAP-0184, 4,11-diethyl-4-hydroxy-3,14-dioxo-3,4,12,14-tetrahydro-1H-pyrano[3′,4′:6,7]indolizino[1,2-b]quinolin-9-yl (1-(3-(5-(3-(2,4-dihydroxy-5-isopropylphenyl)-5-hydroxy-4H-1,2,4-triazol-4-yl)-1H-indol-1-yl)propanoyl)piperidin-4-yl)(methyl)carbamate]",5.40,18.0%,18.0%,"% Remaining (1 h) ([1]; mouse plasma, 37° C., 10 μM): 18.0%"
"CCNC(=O)c1nnc(-c2cc(C(C)C)c(O)cc2O)n1-c1ccc(OC2CCN(C(=O)CN(C)C(=O)Oc3ccc4nc5c(c(CC)c4c3)Cn3c-5cc4c(c3=O)COC(=O)[C@]4(O)CC)CC2)cc1 [SDC-TRAP-0206, (S)-4,11-diethyl-4-hydroxy-3,14-dioxo-3,4,12,14-tetrahydro-1H-pyrano[3′,4′:6,7]indolizino[1,2-b]quinolin-9-yl (2-(4-(4-(3-(2,4-dihydroxy-5-isopropylphenyl)-5-(ethylcarbamoyl)-4H-1,2,4-triazol-4-yl)phenoxy)piperidin-1-yl)-2-oxoethyl)(methyl)carbamate]",6.49,68.6%,68.6%,
"CCNC(=O)c1nnc(-c2cc(C(C)C)c(O)cc2O)n1-c1ccc(Oc2ccc(N(C)C(=O)Oc3ccc4nc5c(c(CC)c4c3)Cn3c-5cc4c(c3=O)COC(=O)[C@]4(O)CC)cc2)cc1 [SDC-TRAP-0145, (S)-4,11-diethyl-4-hydroxy-3,14-dioxo-3,4,12,14-tetrahydro-1H-pyrano[3′,4′:6,7]indolizino[1,2-b]quinolin-9-yl (4-(4-(3-(2,4-dihydroxy-5-isopropylphenyl)-5-(ethylcarbamoyl)-4H-1,2,4-triazol-4-yl)phenoxy)phenyl)(methyl)carbamate]",6.74,14.1%,14.1%,
"CCNC(=O)c1nnc(-c2cc(C(C)C)c(O)cc2O)n1-c1ccc(OC2CCN(C(=O)C3CCN(C(=O)Oc4ccc5nc6c(c(CC)c5c4)Cn4c-6cc5c(c4=O)COC(=O)[C@]5(O)CC)C(C)C3)CC2)cc1 (stereo partly drawn) [SDC-TRAP-0213, (S)-4,11-diethyl-4-hydroxy-3,14-dioxo-3,4,12,14-tetrahydro-1H-pyrano[3′,4′:6,7]indolizino[1,2-b]quinolin-9-yl 4-(4-(4-(3-(2,4-dihydroxy-5-isopropylphenyl)-5-(ethylcarbamoyl)-4H-1,2,4-triazol-4-yl)phenoxy)piperidine-1-carbonyl)-2-methylpiperidine-1-carboxylate]",6.61,74.7%,74.7%,
"Cc1cc(COC(=O)Nc2cccc3c2CN(C2CCC(=O)NC2=O)C3=O)cc(C)c1OC(=O)N1CCN(Cc2ccc(-n3c(O)nnc3-c3cc(C(C)C)c(O)cc3O)cc2F)CC1 (stereo not shown) [SDC-TRAP-0182, 4-((((2-(2,6-dioxopiperidin-3-yl)-1-oxoisoindolin-4-yl)carbamoyl)oxy)methyl)-2,6-dimethylphenyl 4-(4-(3-(2,4-dihydroxy-5-isopropylphenyl)-5-hydroxy-4H-1,2,4-triazol-4-yl)-2-fluorobenzyl)piperazine-1-carboxylate]",6.44,91.9%,,
"CCc1c2c(nc3ccc(O)cc13)-c1cc3c(c(=O)n1C2)COC(=O)C3(CC)OC(=O)CN1CCC(Cc2ccc(-n3c(O)nnc3-c3cc(C(C)C)c(O)cc3O)cc2)CC1 (stereo not shown) [SDC-TRAP-0071, 4,11-diethyl-9-hydroxy-3,14-dioxo-3,4,12,14-tetrahydro-1H-pyrano[3′,4′:6,7]indolizino[1,2-b]quinolin-4-yl 2-(4-(4-(3-(2,4-dihydroxy-5-isopropylphenyl)-5-hydroxy-4H-1,2,4-triazol-4-yl)benzyl)piperidin-1-yl)acetate]",6.51,102%,102%,
"CCNC(=O)c1nnc(-c2cc(C(C)C)c(O)cc2O)n1-c1ccc(Oc2ccc(C(=O)N3CCC(OC(=O)OC4(CC)C(=O)OCc5c4cc4n(c5=O)Cc5c-4nc4ccc(O)cc4c5CC)CC3)cc2)cc1 (stereo not shown) [SDC-TRAP-0203, 4,11-Diethyl-9-hydroxy-3,14-dioxo-3,4,12,14-tetrahydro-1H-pyrano[3′,4′:6,7]indolizino[1,2-b]quinolin-4-yl (1-(4-(4-(3-(2,4-dihydroxy-5-isopropylphenyl)-5-(ethylcarbamoyl)-4H-1,2,4-triazol-4-yl)phenoxy)benzoyl)piperidin-4-yl) carbonate]",6.35,,71.2%,
"CCc1c2c(nc3ccc(O)cc13)-c1cc3c(c(=O)n1C2)COC(=O)C3(CC)OC(=O)CN1CCN(c2ccc(-n3c(O)nnc3-c3cc(C(C)C)c(O)cc3O)cc2)CC1 (stereo not shown) [SDC-TRAP-0056, 4,11-diethyl-9-hydroxy-3,14-dioxo-3,4,12,14-tetrahydro-1H-pyrano[3′,4′:6,7]indolizino[1,2-b]quinolin-4-yl 2-(4-(4-(3-(2,4-dihydroxy-5-isopropylphenyl)-5-hydroxy-4H-1,2,4-triazol-4-yl)phenyl)piperazin-1-yl)acetate]",5.90,78.4%,78%,Plasma Conc. ([2]; Time (h) 0.083): 1220 µM; Tumor Conc. ([2]; Time (h) 0.083): 6.40 nmol/g of tissue; Tumor/Plasma Ratio ([2]; Time (h) 0.083): 0.00525; Plasma Conc. ([2]; Time (h) 6): 2.06 µM; Tumor Conc. ([2]; Time (h) 6): 2.65 nmol/g of tissue; Tumor/Plasma Ratio ([2]; Time (h) 6): 1.28; Plasma Conc. ([2]; Time (h) 12): 0.382 µM; Tumor Conc. ([2]; Time (h) 12): 0.746 nmol/g of tissue; Tumor/Plasma Ratio ([2]; Time (h) 12): 1.95; Plasma Conc. ([2]; Time (h) 24): 0.0343 µM; Tumor Conc. ([2]; Time (h) 24): BQL; Plasma Conc. ([2]; Time (h) 48): BQL; Tumor Conc. ([2]; Time (h) 48): BQL
